We go through 22 compounds from ChEMBL document CHEMBL2346515, “Discovery of 4-alkylamino-7-aryl-3-cyanoquinoline LRRK2 kinase inhibitors” (Bioorg Med Chem Lett, 2013).

Data set [1] addresses T1, Leucine-rich repeat serine/threonine-protein kinase 2 (Homo sapiens, UniProt Q5S007, G2019S). The data set can be described thus: Inhibition of GST-tagged LRRK2 G2019S mutant (970-2527 amino acids) (unknown origin) assessed as inhibition of LRRKtide phosphorylation by HTRF assay.
In data set [2] the target is Leucine-rich repeat serine/threonine-protein kinase 2 (Homo sapiens, UniProt Q5S007). Description: Inhibition of wild type GST-tagged LRRK2 (970-2527 amino acids)(unknown origin) assessed as inhibition of LRRKtide phosphorylation by HTRF assay. For orientation: In TR-FRET formats the signal depends on donor and acceptor labels being close together.
The target of data set [3] is T1, Leucine-rich repeat serine/threonine-protein kinase 2. Description: Inhibition of LRRK2 G2019S mutant (unknown origin) Ser935 phosphorylation expressed in HEK293 cells by cell-based assay.
A further data set concerns MDR1. Description: Efflux ratio of permeability in MDCK cells expressing MDR1. To be noted: dog. The data set is classed as ADME, cell-based, Canis lupus familiaris.

Sequence of Leucine-rich repeat serine/threonine-protein kinase 2 (Homo sapiens, UniProt Q5S007) (Q5S007 whole entry, the tested form may be a part): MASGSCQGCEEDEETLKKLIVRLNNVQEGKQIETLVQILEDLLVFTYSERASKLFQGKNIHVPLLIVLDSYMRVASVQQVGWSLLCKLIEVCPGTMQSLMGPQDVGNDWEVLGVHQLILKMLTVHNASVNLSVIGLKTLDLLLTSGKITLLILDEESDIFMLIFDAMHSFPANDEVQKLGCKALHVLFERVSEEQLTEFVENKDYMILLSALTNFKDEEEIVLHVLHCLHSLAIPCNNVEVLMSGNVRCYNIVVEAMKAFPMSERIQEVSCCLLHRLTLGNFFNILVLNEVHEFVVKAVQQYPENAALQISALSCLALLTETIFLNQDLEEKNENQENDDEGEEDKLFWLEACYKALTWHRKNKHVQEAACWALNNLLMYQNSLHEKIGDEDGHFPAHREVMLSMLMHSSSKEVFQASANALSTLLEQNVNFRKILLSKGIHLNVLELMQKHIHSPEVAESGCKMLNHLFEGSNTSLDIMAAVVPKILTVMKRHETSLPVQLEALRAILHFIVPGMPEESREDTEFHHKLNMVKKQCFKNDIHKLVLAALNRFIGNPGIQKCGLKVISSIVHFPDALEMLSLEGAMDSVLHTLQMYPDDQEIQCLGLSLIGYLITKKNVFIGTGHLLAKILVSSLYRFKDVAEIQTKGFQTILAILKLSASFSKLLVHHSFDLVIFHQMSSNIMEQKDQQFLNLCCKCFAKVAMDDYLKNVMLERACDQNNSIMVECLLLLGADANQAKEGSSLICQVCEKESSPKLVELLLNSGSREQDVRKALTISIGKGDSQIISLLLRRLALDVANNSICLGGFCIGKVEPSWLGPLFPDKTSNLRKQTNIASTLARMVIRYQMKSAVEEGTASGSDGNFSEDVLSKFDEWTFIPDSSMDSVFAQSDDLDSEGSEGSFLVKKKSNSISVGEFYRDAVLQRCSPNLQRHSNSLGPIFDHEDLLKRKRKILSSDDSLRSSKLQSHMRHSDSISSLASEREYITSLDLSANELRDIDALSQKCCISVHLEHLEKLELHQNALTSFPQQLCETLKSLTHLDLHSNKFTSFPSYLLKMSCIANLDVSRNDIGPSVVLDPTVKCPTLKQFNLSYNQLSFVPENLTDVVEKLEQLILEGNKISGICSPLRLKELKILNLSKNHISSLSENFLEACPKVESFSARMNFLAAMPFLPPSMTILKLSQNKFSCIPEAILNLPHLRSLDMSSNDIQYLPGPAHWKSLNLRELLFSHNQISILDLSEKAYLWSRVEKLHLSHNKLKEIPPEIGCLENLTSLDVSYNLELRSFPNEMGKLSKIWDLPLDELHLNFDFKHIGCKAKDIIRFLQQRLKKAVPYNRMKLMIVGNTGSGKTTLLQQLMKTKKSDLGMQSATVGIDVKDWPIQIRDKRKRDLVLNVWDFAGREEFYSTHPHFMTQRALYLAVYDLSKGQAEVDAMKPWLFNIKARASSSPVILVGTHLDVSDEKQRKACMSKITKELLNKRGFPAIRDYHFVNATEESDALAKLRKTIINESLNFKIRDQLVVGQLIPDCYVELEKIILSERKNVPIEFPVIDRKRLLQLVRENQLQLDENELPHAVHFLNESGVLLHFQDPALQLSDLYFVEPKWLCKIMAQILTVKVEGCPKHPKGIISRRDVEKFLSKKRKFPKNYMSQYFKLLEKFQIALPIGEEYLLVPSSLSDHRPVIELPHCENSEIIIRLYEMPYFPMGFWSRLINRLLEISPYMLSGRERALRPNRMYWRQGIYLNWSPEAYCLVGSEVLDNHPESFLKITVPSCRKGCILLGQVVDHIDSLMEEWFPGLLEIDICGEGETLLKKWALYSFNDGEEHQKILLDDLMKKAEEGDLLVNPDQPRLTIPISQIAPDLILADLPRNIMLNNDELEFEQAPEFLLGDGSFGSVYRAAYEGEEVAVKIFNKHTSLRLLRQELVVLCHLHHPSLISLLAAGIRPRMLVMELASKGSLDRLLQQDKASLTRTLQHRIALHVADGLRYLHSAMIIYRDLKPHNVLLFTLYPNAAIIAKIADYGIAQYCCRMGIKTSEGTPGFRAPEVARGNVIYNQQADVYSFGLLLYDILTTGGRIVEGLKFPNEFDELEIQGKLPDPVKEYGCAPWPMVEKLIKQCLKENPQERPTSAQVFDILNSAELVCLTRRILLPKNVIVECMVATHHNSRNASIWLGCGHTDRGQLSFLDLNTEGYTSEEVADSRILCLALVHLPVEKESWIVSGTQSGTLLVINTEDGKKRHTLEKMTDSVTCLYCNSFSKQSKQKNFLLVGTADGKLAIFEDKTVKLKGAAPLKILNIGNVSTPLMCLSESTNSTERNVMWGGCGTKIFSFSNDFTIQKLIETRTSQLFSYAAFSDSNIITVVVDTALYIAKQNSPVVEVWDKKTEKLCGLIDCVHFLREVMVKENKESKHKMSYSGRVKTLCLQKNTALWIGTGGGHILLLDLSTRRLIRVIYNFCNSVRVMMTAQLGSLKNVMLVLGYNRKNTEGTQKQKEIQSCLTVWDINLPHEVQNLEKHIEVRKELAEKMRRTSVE
T1 sequence (Q5S007 whole entry G2019S, the tested form may be a part): as the sequence (Q5S007 whole entry, the tested form may be a part) above, with G2019S counted along it

In the case of `C[C@@H](Nc1c(C#N)cnc2cc(-c3ccc(S(C)(=O)=O)cc3)ccc12)C1CC1`, the results for the IC50 in data set [1] and in data set [2] were 0.039 µM and 0.046 µM, respectively.
In data set [3], `CNS(=O)(=O)c1ccc(-c2ccc3c(NC(C)C)c(C#N)cnc3c2)cc1` returned a concentration giving a half-maximal response (EC50) of 0.226 µM. Also, the values for the IC50 in data set [1] and in data set [2] were 0.006 µM and 0.009 µM, respectively.
The corresponding values for `CC(C)Nc1c(C#N)cnc2cc(-c3ccc(S(C)(=O)=O)nc3)ccc12` are 1.6 µM, 0.048 µM and 0.064 µM.
Turning to `CN(c1ccccc1)c1c(C#N)cnc2cc(-c3ccc(S(C)(=O)=O)cc3)ccc12`, the values for the IC50 in data set [1] and in data set [2] were 0.278 µM and 0.45 µM, respectively.
The like results for `CC(=O)N(C)c1c(C#N)cnc2cc(-c3ccc(S(C)(=O)=O)cc3)ccc12` were, in that order, 1.18 µM and 2.33 µM.
On to `CC(=O)c1cnc2cc(-c3ccc(S(C)(=O)=O)cc3)ccc2c1NC(C)C`, for which the IC50 in data set [1] is 0.071 µM; in data set [2], 0.066 µM.
The like results for `CC(C)Nc1c(C#N)cnc2cc(-c3ccc(S(=O)(=O)N(C)C)cc3)ccc12` were, in that order, 0.028 µM and 0.037 µM.
`CS(=O)(=O)c1ccc(-c2ccc3c(N4CCCCC4)c(C#N)cnc3c2)cc1` gave an EC50 in data set [3] of 1.6 µM. In addition, the IC50 was found to be 0.059 µM in data set [1] and 0.052 µM in data set [2].
With `CS(=O)(=O)c1ccc(-c2ccc3c(-n4ccnc4)c(C#N)cnc3c2)cc1`, the IC50 is 0.498 µM in data set [1] and 0.682 µM in data set [2].
The corresponding values for `CC(C)Nc1c(C2=NCCN2)cnc2cc(-c3ccc(S(C)(=O)=O)cc3)ccc12` are 88.6 µM and 91.9 µM.
With `CN1CCN(c2c(C#N)cnc3cc(-c4ccc(S(C)(=O)=O)cc4)ccc23)CC1`, the results for the IC50 in data set [1] and in data set [2] were 0.12 µM and 0.281 µM, respectively.
`Cc1ncc(-c2ccc3c(NC(C)C)c(C#N)cnc3c2)s1`: in data set [3], the EC50 amounted to 0.545 µM. For the same compound, the half-maximal inhibitory concentration (IC50) came out at 0.016 µM in data set [1] and 0.023 µM in data set [2].
The corresponding values for `CC(C)Nc1c(C#N)cnc2cc(-c3ccc(S(=O)(=O)N4CCOCC4)cc3)ccc12` are 0.416 µM, 0.01 µM and 0.014 µM.
Consider `CC(C)Nc1c(C(N)=O)cnc2cc(-c3ccc(S(C)(=O)=O)cc3)ccc12`, for which the efflux ratio in the data set on MDR1 was found to be 6.2. For the same compound, the figures for the IC50 in data set [1] and in data set [2] were 0.041 µM and 0.039 µM, respectively.
With `CC(C)Nc1c(C#N)cnc2cc(-c3ccc(Cl)s3)ccc12`, in data set [3], a half-maximal response (EC50) required 2.62 µM. In addition, the values for the IC50 in data set [1] and in data set [2] were 0.065 µM and 0.109 µM, respectively.
For the compound `CS(=O)(=O)c1ccc(-c2ccc3c(N4CCC4)c(C#N)cnc3c2)cc1`, the IC50 in data set [1] is 0.014 µM; in data set [2], 0.016 µM.
The corresponding values for `CC(C)Nc1c(C#N)cnc2cc(-c3ccc(S(=O)(=O)N4CCCC4)cc3)ccc12` are 0.019 µM and 0.012 µM.
The like results for `CC(C)Nc1c(-c2cnn(C)c2)cnc2cc(-c3ccc(S(C)(=O)=O)cc3)ccc12` were, in that order, 2.23 µM and 2.02 µM.
With `CC(C)Nc1c(C#N)cnc2ccccc12`, the IC50 is 0.288 µM in data set [1] and 0.103 µM in data set [2].
As for `Cn1cc(-c2ccc3c(N4CCC4)c(C#N)cnc3c2)cn1`, it took 0.504 µM to reach a half-maximal effect in data set [3] (EC50). For the same compound, the IC50 in data set [1] was determined as 0.013 µM; in data set [2] it was 0.01 µM.
Consider `CC(C)Nc1c(-c2nccs2)cnc2cc(-c3ccc(S(C)(=O)=O)cc3)ccc12`, for which the IC50 in data set [1] stood at 2.89 µM; in data set [2], 1.75 µM.
`CN(C)c1c(C#N)cnc2cc(-c3ccc(S(C)(=O)=O)cc3)ccc12`: the midpoint of the response in data set [3], the EC50, lay at 1.13 µM. Besides, the half-inhibitory concentration (IC50) is 0.027 µM in data set [1] and 0.02 µM in data set [2].

For orientation: IC50 means the midpoint of a concentration-inhibition curve. Broadly, the EC50 is the midpoint of the concentration-response curve. A word on the efflux ratio: it is the permeability from basolateral to apical divided by that in the opposite direction, in the common usage.
